Legend:
HEL cells = assay: Minimum cytotoxic concentration, alteration of cell morphology in HEL cells; assay type: cell-based, human; conditions: for Minimum cytotoxic concentration (MCC) (HEL): Table 1, microscopically detectable alteration of normal cell morphology; for Minimum cytotoxic concentration (HEL): Table 2, microscopically detectable alteration of cell morphology
TK+ VZV strain YS = assay: Plaque reduction, TK+ VZV strain YS in HEL cells; assay type: cell-based, varicella-zoster virus; conditions: Human alphaherpesvirus 3, HEL, read-out: EC50 TK+ VZV strains YS
HIV-1 = conditions: cited from earlier work

Row | SMILES | Minimum cytotoxic concentration (MCC) (HEL) (HEL cells) | Minimum cytotoxic concentration (HEL) (HEL cells) | EC50 (TK+ VZV strain YS) | activity against HIV-1 in PBM cells (HIV-1)
1 | Nc1nc(O)c2ncn(COC(CO)CO)c2n1 [Ganciclovir, reference compound] | >100 µM | – | – | –
2 | C[C@H](NP(=O)(OC[C@H]1O[C@@H](n2cc(I)c(=O)[nH]c2=O)C(F)(F)[C@@H]1O)Oc1ccccc1)C(=O)OCc1ccccc1 (stereo partly drawn) [Compound 16, 2′-Deoxy-2′,2′-difluoro-D-5-iodouridine 5′-O-phenyl-(benzoxy-alaninyl)-phosphate] | >100 µM | – | – | –
3 | COC(=O)[C@H](C)NP(=O)(OC[C@H]1O[C@@H](n2cc(I)c(=O)[nH]c2=O)C(F)(F)[C@@H]1O)Oc1ccccc1 (stereo partly drawn) [Compound 17, 2′-Deoxy-2′,2′-difluoro-D-5-iodouridine 5′-O-phenyl-(methoxy-alaninyl)-phosphate] | >100 µM | >50 µM | – | –
4 | O=c1[nH]c(=O)n([C@H]2C[C@H](O)[C@@H](CO)O2)cc1/C=C/Br [Brivudin, reference compound] | – | ⩾300 μM | 11 nM | –
5 | Nc1ncnc2c1ncn2C1OC(CO)C(O)C1(F)F (stereo not drawn) [adenine derivative] | – | – | – | 3.4 µM
6 | C[C@H](NP(=O)(OC[C@H]1O[C@@H](n2cc(Cl)c(=O)[nH]c2=O)C(F)(F)[C@@H]1O)Oc1ccccc1)C(=O)OCc1ccccc1 (stereo partly drawn) [Compound 21, 2′-Deoxy-2′,2′-difluoro-D-5-chlorouridine 5′-O-phenyl-(benzoxy-alaninyl)-phosphate] | >100 µM | >50 µM | – | –
7 | Nc1nc2c(ncn2COCCO)c(=O)[nH]1 [Acyclovir, reference compound] | – | >400 µM | – | –
8 | C[C@H](NP(=O)(OC[C@H]1O[C@@H](n2cc(Br)c(=O)[nH]c2=O)C(F)(F)[C@@H]1O)Oc1ccccc1)C(=O)OCc1ccccc1 (stereo partly drawn) [Compound 20, 2′-Deoxy-2′,2′-difluoro-D-5-bromouridine 5′-O-phenyl-(benzoxy-alaninyl)-phosphate] | >100 µM | >50 µM | – | –
